Data taken from patent US20120003298A1, “METHODS FOR INDUCING AN IMMUNE RESPONSE” (priority 2010, published 2012).

Columns and labels:
human whole blood = test: Cytokine secretion in human whole blood assay, ELISA; assay type: cell-based; conditions: whole blood, 6 hours
Description: Before drawing the blood, the compounds were added to 96 well round bottom plates in a 10× diluted sample at 20 ul. The compounds were diluted in RPMI media without serum but with antibiotics. Antibiotics were added at a 10× concentration. After drawing the blood, the whole blood sample was gently mixed to obtain a homogeneous sample, and 180 ul was added to each well.
All compounds were setup in concentrations at 0-0.01-0.03-0.1-0.5-2.0-10.0 micromolar as the final concentration. Vehicle control was DMSO control, where we used the highest concentration used for the compounds. After addition of blood, all plates were gently agitated at 37° C. and 5% CO2 until harvest.
For the 6 hours time point, the plate was centrifuged 500×g. Supernatant (SN) was transferred to a tube and centrifuged at 10.000×g for 10 min to get rid of cells and protein aggregates. The clarified supernatant was frozen at −80° C. until analysis.
The SN was removed to another tube and centrifuged at 10.000×g for 10 min. to get rid of aggregates etc. The clarified supernatant was frozen at −80° C. until analysis.
Concentrations of cytokines were determined by ELISA from R&D Systems. The results were analyzed in Graph Pad Prism in order to prepare dose-response
curves, and for determination of EC50 values. FACS analysis was made by using Becton-Dickinson FACSDiva software and subsequently illustrated in Graph Pad Prism.

[1] = tested on: myeloid CD11c+/CD123− DCs; test: FACS, myeloid DC activation in whole blood; assay type: cell-based, human; conditions: 24 hours; 0.1 and 0.5 uM
Description: The FACS analysis for donor 1 and donor 2 was made on another day than donor 3. The compound concentrations were as follows:
B cell activation: 2 and 10 uM mDC/pDC: 0.1 and 0.5 uM
The FACS analysis was used to identify whether the test compounds could induce activation of B cells, and two different subsets of dendritic cells, namely the myeloid CD11c+/CD123− DCs and the plasmacytoid CD11c−/CD123+DCs. The following markers were studied to identify the activation status of the different subsets:
The FACS staining was performed according to the manufacturer's instructions. Lysis of red blood cells was performed before FACS staining in order to minimize auto-florescence. To include as many B cells and DCs in the study as possible the FACS analyses were performed on 500,000 cells in total for each staining. A P1 gate was set only to include relevant cells on FSC vs. SSC (see FIGS. 12-15). The results of the individual analysis were present as Mean Fluorescence Intensity (MFI) values, for certain activation marker in a given gate setting, represent the actual cell subset. The isotype background values have been used to set the gates so that a maximum at 2% of unspecific stained cells could be found in the positive gates.
The analysis of myeloid DCs was based on HLA-DR+/CD11c+/CD123-cells, thus all analyzed cells was included in the HLA-DR+(P3) gate and CD11c+/CD123− (Q4) gate (see gates in FIGS. 13-15).

NFκB-bla Raw 264.7 Cells = test: NFκB activation in NFκB-bla Raw 264.7 cells; assay type: cell-based, mouse; conditions: FIG. 2
Description: NFκB-bla Raw 264.7 Cells were purchased from Life Technologies Corporation (Carlsbad, Calif.). […] Drugs were dissolved and diluted in DMSO to obtain an initial stock solution (10 or 50 mM). Drugs were then serially diluted (usually 1:3 or 1:5) in DMSO. The stock solutions were further diluted in Assay Medium and added to cells already in each well.

[2] = tested on: Escherichia coli WP2 uvrA; test: Bacterial mutation assay, Escherichia coli; assay type: cell-based
Description: The five tester strains TA1535, TA1537, TA98, TA100 and WP2 uvrA were used. Experiments were performed both in the absence and presence of metabolic activation, using liver S9 fraction from rats pre-treated with phenobarbitone and betanaphthoflavone. SC12 was used as a solution in dimethylsulfoxide (DMSO).

[3] = tested on: 73 primary molecular targets; test: Radioligand binding assay among 73 primary molecular targets; conditions: SC12 tested at 30 microM
Inv-Myc mice = test: Mouse skin cancer model (Inv-Myc mice, Tamoxifen induction), topical creams; assay type: in vivo
Description: The mice used are essentially discussed in Pelengaris, S., et al., (1999) Molecular Cell 3:565-77. Activation of c-myc in this model, such as by the application of Tamoxifen, leads to increased keratinocyte proliferation, reversible epidermal hyperplasia, and papillomatosis changes.
Sex-matched 8-15 week old Inv-Myc mice were used for the study. The mice were shaved on the back 24 hours before the daily Tamoxifen induction (1 mg/200 microliters ethanol, day 0 to 7) to an area 5×3 cm^2. […] Mice were sacrificed on day 10. […] Sera were collected when mice were sacrificed and 2 hours after the first cream application in some instances.

MB49 cells = test: Mouse bladder cancer model, intravesical treatment (Experiment 24); assay type: in vivo
Description: A set of experiments was conducted with SC12 in various solutions, in a mouse bladder cancer model.
7-9 week old C57BU6 mice were implanted with 1×10^6 MB49 cells after 0.1% poly L lysine treatment on day 0. […] On day 11, mice were sacrificed and organs were harvested.

[4] = tested on: AY-27 rat bladder cancer cell-line; conditions: in vivo
[5] = Solubility observations in the text

Question: For `CCCCCCCCCCCC(=O)OCC(COP(=O)(O)OCCNC(=O)c1ccc(Cn2c(=O)[nH]c3c(N)nc(OCCOC)nc32)cc1)OC(=O)CCCCCCCCCCC` (centres unmarked) [SC12], which “IL-10 production” value (human whole blood) is on record?
Answer: no IL-10 production was seen

Question: And the “CCR7 expression in mDCs (MFI, words)” value [1]?
Answer: less potent stimulator of CCR7 expression

Question: What about the “CD80 expression in mDCs (MFI, words)” value [1] of the same molecule?
Answer: noteworthy CD80 expression in all three donors

Question: And the “CD86 expression in mDCs (MFI, words)” value [1]?
Answer: weak CD86 expression in donor 2 and 3, but not in donor 1

Question: And the “activity in NFkB RAW cells” value (NFκB-bla Raw 264.7 Cells)?
Answer: more active than the free pharmocophore

Question: And the “toxicity to tester strains” value ([2]; 50.0-5000 micrograms/plate, absence or presence of S9)?
Answer: No toxicity was observed with any tester strain at any dose level

Question: What about the “reverse mutation” value ([2]; up to 5000 micrograms/plate, absence or presence of S9 metabolism) of the same molecule?
Answer: does not induce reverse mutation

Question: What about the “binding to receptors associated with pain-related syndromes (e.g. adenosine and sodium channel)” value [3] of the same molecule?
Answer: did not bind this type of receptors

Question: What about the “serum IL-6” value (Inv-Myc mice; 2 hours after the first administration) of the same molecule?
Answer: less IL-6 than Aldara

Question: And the “Ki67 positive cells” value (Inv-Myc mice; Experiment 1)?
Answer: decreased Ki67 positive cells

Question: And the “gross appearance of skin” value (Inv-Myc mice; Experiment 1)?
Answer: redness and scaling

Question: What about the “gross appearance of skin” value (Inv-Myc mice; Experiment 2) of the same molecule?
Answer: smooth and soft

Question: And the “skin thickness” value (Inv-Myc mice; Experiment 2)?
Answer: decreased development of skin thickness

Question: What about the “acanthosis” value (Inv-Myc mice; cream every other day, days 0-8) of the same molecule?
Answer: reduction in acanthosis

Question: What about the “eczematous reaction” value (Inv-Myc mice; mouse, in vivo) of the same molecule?
Answer: less eczematous reaction than Aldara (Imiquimod) cream

Question: What about the “serum IL-6 and TNF-alpha” value (MB49 cells; Experiment 1, in Phosal 50, 50 microliters, 20 minutes, 2 h and 24 h) of the same molecule?
Answer: under the detection levels

Question: And the “bladder histology, cell infiltration” value (MB49 cells; Experiment 4, SC12 0.38%, MB49 implanted bladder, day 11)?
Answer: more monocyte infiltration

Question: What about the “toxicity” value [4] of the same molecule?
Answer: No signs of toxicity

Question: And the “solubility” value ([5]; P450 assays, especially in ACN)?
Answer: low solubility

Question: What about the “precipitation in bacterial mutation assay” value ([5]; toxicity test, two highest concentrations (5000 and 1580 micrograms/plate), end of incubation) of the same molecule?
Answer: Precipitation
